Measurements from patent publication US11753397B2, “Cereblon binders for the degradation of ikaros” (C4 Therapeutics, Inc., priority 2018, dated 2023).

System: NCIH929.1 cells
Assay: Cell viability assay (CellTiter-Glo 2.0, ATP quantification)
Type: cell-based
Settings: NCIH929.1 cell viability, CellTiter-Glo 2.0, 96 hr incubation, top concentration 1 μM
In short: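 Cells seeded at 750/well in RPMI with 10% FBS and 0.05 mM 2-mercaptoethanol, exposed 96 h at 37 °C to 10-point half-log dilutions in duplicate, top 1 μM. Viability by CellTiter-Glo 2.0 ATP luminescence, with a day-0 read as cytostatic baseline (CT0).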

Row | Structure (SMILES) | GI50
1 | Cc1cncc(N2CCC(C(=O)N3CCC(n4cc(CNc5cccc6c5C(=O)N(C5CCC(=O)NC5=O)C6=O)cn4)CC3)CC2)n1 (stereo not drawn) [Compound 122, 2-(2,6-dioxopiperidin-3-yl)-4-(((1-(1-(1-(6-methylpyrazin-2-yl)piperidine-4-carbonyl)piperidin-4-yl)-1H-pyrazol-4-yl)methyl)amino)isoindoline-1,3-dione] | < 0.001 µM
2 | O=C1CCC(N2C(=O)c3cccc(NCc4cnn(C5CCN(C(=O)CC6CCN(C(=O)c7ccccc7)CC6)CC5)c4)c3C2=O)C(=O)N1 (stereo not drawn) [Compound 123, 4-(((1-(1-(2-(1-benzoylpiperidin-4-yl)acetyl)piperidin-4-yl)-1H-pyrazol-4-yl)methyl)amino)-2-(2,6-dioxopiperidin-3-yl)isoindoline-1,3-dione] | < 0.1 µM
3 | O=C1CCC(N2C(=O)c3cccc(NCc4cnn(C5CCN(C(=O)Cc6ccc7c(c6Cl)OCCCO7)CC5)c4)c3C2=O)C(=O)N1 (stereo not drawn) [Compound 124, 4-(((1-(1-(2-(6-chloro-3,4-dihydro-2H-benzo[b][1,4]dioxepin-7-yl)acetyl)piperidin-4-yl)-1H-pyrazol-4-yl)methyl)amino)-2-(2,6-dioxopiperidin-3-yl)isoindoline-1,3-dione] | < 0.1 µM
4 | Cn1nc(C2CC2)cc1CC(=O)N1CCC(n2cc(CNc3cccc4c3C(=O)N(C3CCC(=O)NC3=O)C4=O)cn2)CC1 (stereo not drawn) [Compound 125, 4-(((1-(1-(2-(3-cyclopropyl-1-methyl-1H-pyrazol-5-yl)acetyl)piperidin-4-yl)-1H-pyrazol-4-yl)methyl)amino)-2-(2,6-dioxopiperidin-3-yl)isoindoline-1,3-dione] | < 0.1 µM
5 | O=C1CCC(N2C(=O)c3cccc(NCc4cnn(C5CCN(C(=O)CC6CCN(C(=O)C7CCC7)CC6)CC5)c4)c3C2=O)C(=O)N1 (stereo not drawn) [Compound 126, 4-(((1-(1-(2-(1-(cyclobutanecarbonyl)piperidin-4-yl)acetyl)piperidin-4-yl)-1H-pyrazol-4-yl)methyl)amino)-2-(2,6-dioxopiperidin-3-yl)isoindoline-1,3-dione] | < 0.1 µM
6 | O=C1CCC(N2C(=O)c3cccc(NCc4cnn(C5CCN(CC6CCCCC6)CC5)c4)c3C2=O)C(=O)N1 (stereo not drawn) [Compound 127, 4-(((1-(1-(cyclohexylmethyl)piperidin-4-yl)-1H-pyrazol-4-yl)methyl)amino)-2-(2,6-dioxopiperidin-3-yl)isoindoline-1,3-dione] | < 0.1 µM
7 | O=C1CCC(N2C(=O)c3cccc(NCc4cnn(C5CCN(CC6CCCC6)CC5)c4)c3C2=O)C(=O)N1 (stereo not drawn) [Compound 128, 4-(((1-(1-(cyclopentylmethyl)piperidin-4-yl)-1H-pyrazol-4 yl)methyl)amino)-2-(2,6-dioxopiperidin-3-yl)isoindoline-1,3-dione] | < 0.1 µM
8 | O=C1CCC(N2C(=O)c3cccc(NCc4cnn(C5CCN(C6CCC6)CC5)c4)c3C2=O)C(=O)N1 (stereo not drawn) [Compound 129, 4-(((1-(1-cyclobutylpiperidin-4-yl)-1H-pyrazol-4-yl)methyl)amino)-2-(2,6-dioxopiperidine-3-yl)isoindoline-1,3-dione] | < 0.1 µM
9 | O=C1CCC(N2C(=O)c3cccc(NCc4cnn(C5CCN(C6CCCC6)CC5)c4)c3C2=O)C(=O)N1 (stereo not drawn) [Compound 130, 4-(((1-(1-cyclopentylpiperidin-4-yl)-1H-pyrazol-4-yl)methyl)amino)-2-(2,6-dioxopiperidin-3-yl)isoindoline-1,3-dione] | < 0.1 µM
10 | O=C1CCC(N2C(=O)c3cccc(NCc4cnn(C5CCN(CC6CCC6)CC5)c4)c3C2=O)C(=O)N1 (stereo not drawn) [Compound 131, 4-(((1-(1-(cyclobutylmethyl)piperidin-4-yl)-1H-pyrazol-4-yl)methyl)amino)-2-(2,6-dioxopiperidin-3-yl)isoindoline-1,3-dione] | < 0.1 µM
11 | CC1(CN2CCC(n3cc(CNc4cccc5c4C(=O)N(C4CCC(=O)NC4=O)C5=O)cn3)CC2)CCCCC1 (stereo not drawn) [Compound 132, 2-(2,6-dioxopiperidin-3-yl)-4-(((1-(1-((1-methylcyclohexyl)methyl)piperidin-4-yl)-1H-pyrazol-4-yl)methyl)amino)isoindoline-1,3-dione] | < 0.1 µM
12 | O=C1CCC(N2C(=O)c3cccc(NCc4cnn(C5CCN(C6CCCCC6)CC5)c4)c3C2=O)C(=O)N1 (stereo not drawn) [Compound 133, 4-(((1-(1-cyclohexylpiperidin-4-yl)-1H-pyrazol-4-yl)methyl)amino)-2-(2,6-dioxopiperidin-3-yl)isoindoline-1,3-dione] | < 0.1 µM
13 | O=C1CCC(N2C(=O)c3cccc(NCc4cnn(C5CCN(C6CC6)CC5)c4)c3C2=O)C(=O)N1 (stereo not drawn) [Compound 134, 4-(((1-(1-cyclopropylpiperidin-4-yl)-1H-pyrazol-4-yl)methyl)amino)-2-(2,6-dioxopiperidin-3-yl)isoindoline-1,3-dione] | < 0.1 µM
14 | O=C1CCC(N2C(=O)c3cccc(NCc4cnn(C5CCN(C6CC7(CCC7)C6)CC5)c4)c3C2=O)C(=O)N1 (stereo not drawn) [Compound 135, 2-(2,6-dioxopiperidin-3-yl)-4-(((1-(1-(spiro[3.3]heptan-2-yl)piperidin-4-yl)-1H-pyrazol-4-yl)methyl)amino)isoindoline-1,3-dione] | < 0.1 µM
15 | CC1(CN2CCC(n3cc(CNc4cccc5c4C(=O)N(C4CCC(=O)NC4=O)C5=O)cn3)CC2)CC1 (stereo not drawn) [Compound 136, 2-(2,6-dioxopiperidin-3-yl)-4-(((1-(1-((1-methylcyclopropyl)methyl)piperidin-4-yl)-1H-pyrazol-4-yl)methyl)amino)isoindoline-1,3-dione] | < 0.001 µM
16 | O=C1CCC(N2C(=O)c3cccc(NCc4cnn(C5CCN(CC6(C(F)(F)F)CC6)CC5)c4)c3C2=O)C(=O)N1 (stereo not drawn) [Compound 137, 2-(2,6-dioxopiperidin-3-yl)-4-(((1-(1-((1-(trifluoromethyl)cyclopropyl)methyl)piperidin-4-yl)-1H-pyrazol-4-yl)methyl)amino)isoindoline-1,3-dione] | < 0.1 µM
17 | CC1(CN2CCC(n3cc(CNc4cccc5c4C(=O)N(C4CCC(=O)NC4=O)C5=O)cn3)CC2)CCCC1 (stereo not drawn) [Compound 138, 2-(2,6-dioxopiperidin-3-yl)-4-(((1-(1-((1-methylcyclopentyl)methyl)piperidin-4-yl)-1H-pyrazol-4-yl)methyl)amino)isoindoline-1,3-dione] | < 0.001 µM
18 | CC1(CN2CCC(n3cc(CNc4cccc5c4C(=O)N(C4CCC(=O)NC4=O)C5=O)cn3)CC2)CCC1 (stereo not drawn) [Compound 139, 2-(2,6-Dioxo-piperidin-3-yl)-4-({1-[1-(1-methyl-cyclobutylmethyl)-piperidin-4-yl]-1H-pyrazol-4-ylmethyl}-amino)-isoindole-1,3-dione] | < 0.1 µM
19 | O=C1CCC(N2C(=O)c3cccc(NCc4cnn(C5CCN(CC6(C(F)(F)F)CCC6)CC5)c4)c3C2=O)C(=O)N1 (stereo not drawn) [Compound 140, 2-(2,6-dioxopiperidin-3-yl)-4-(((1-(1-((1-(trifluoromethyl)cyclobutyl)methyl)piperidin-4-yl)-1H-pyrazol-4-yl)methyl)amino)isoindoline-1,3-dione] | < 0.1 µM
20 | Cn1cc(CNc2cccc3c2C(=O)N(C2CCC(=O)NC2=O)C3=O)cn1 (stereo not drawn) [Compound 141, 2-(2,6-dioxopiperidin-3-yl)-4-(((1-methyl-1H-pyrazol-4-yl)methyl)amino)isoindoline-1,3-dione] | < 0.1 µM
21 | CCn1cc(CNc2cccc3c2C(=O)N(C2CCC(=O)NC2=O)C3=O)cn1 (stereo not drawn) [Compound 142, 2-(2,6-dioxopiperidin-3-yl)-4-(((1-ethyl-1H-pyrazol-4-yl)methyl)amino)isoindoline-1,3-dione] | < 0.1 µM
22 | CC(C)Cn1cc(CNc2cccc3c2C(=O)N(C2CCC(=O)NC2=O)C3=O)cn1 (stereo not drawn) [Compound 143, 2-(2,6-dioxopiperidin-3-yl)-4-(((1-isobutyl-1H-pyrazol-4-yl)methyl)amino)isoindoline-1,3-dione] | > 0.1 µM
23 | CC(C)(C)n1cc(CNc2cccc3c2C(=O)N(C2CCC(=O)NC2=O)C3=O)cn1 (stereo not drawn) [Compound 144, 4-(((1-(tert-butyl)-1H-pyrazol-4-yl)methyl)amino)-2-(2,6-dioxopiperidin-3-yl)isoindoline-1,3-dione] | < 0.1 µM
24 | O=C1CCC(N2C(=O)c3cccc(NCc4cnn(-c5ccccc5)c4)c3C2=O)C(=O)N1 (stereo not drawn) [Compound 145, 2-(2,6-dioxopiperidin-3-yl)-4-(((1-phenyl-1H-pyrazol-4-yl)methyl)amino)isoindoline-1,3-dione] | < 0.1 µM
25 | O=C1CCC(N2C(=O)c3cccc(NCc4cnn(C5CCN(C(=O)OCc6ccccc6)CC5)c4)c3C2=O)C(=O)N1 (stereo not drawn) [Compound 146, benzyl 4-(4-(((2-(2,6-dioxopiperidin-3-yl)-1,3-dioxoisoindolin-4-yl)amino)methyl)-1H-pyrazol-1-yl)piperidine-1-carboxylate] | < 0.1 µM
26 | CCOC(=O)N1CCC(n2cc(CNc3cccc4c3C(=O)N(C3CCC(=O)NC3=O)C4=O)cn2)CC1 (stereo not drawn) [Compound 147, ethyl 4-(4-(((2-(2,6-dioxopiperidin-3-yl)-1,3-dioxoisoindolin-4-yl)amino)methyl)-1H-pyrazol-1-yl)piperidine-1-carboxylate] | < 0.1 µM
27 | O=C1CCC(N2C(=O)c3cccc(NCc4cnn(C5CCN(C(=O)OCC(Cl)(Cl)Cl)CC5)c4)c3C2=O)C(=O)N1 (stereo not drawn) [Compound 148, 2,2,2-trichloroethyl 4-(4-(((2-(2,6-dioxopiperidin-3-yl)-1,3-dioxoisoindolin-4-yl)amino)methyl)-1H-pyrazol-1-yl)piperidine-1-carboxylate] | < 0.1 µM
28 | CC(C)(C)COC(=O)N1CCC(n2cc(CNc3cccc4c3C(=O)N(C3CCC(=O)NC3=O)C4=O)cn2)CC1 (stereo not drawn) [Compound 149, neopentyl 4-(4-(((2-(2,6-dioxopiperidin-3-yl)-1,3-dioxoisoindolin-4-yl)amino)methyl)-1H-pyrazol-1-yl)piperidine-1-carboxylate] | < 0.001 µM
29 | O=C1CCC(N2C(=O)c3cccc(NCc4cnn(C5CCCC5)c4)c3C2=O)C(=O)N1 (stereo not drawn) [Compound 151, 4-[(1-cyclopentylpyrazol-4-yl)methylamino]-2-(2,6-dioxo-3-piperidyl)isoindoline-1,3-dione] | < 0.1 µM
30 | CC(C)n1cc(CNc2cccc3c2C(=O)N(C2CCC(=O)NC2=O)C3=O)cn1 (stereo not drawn) [Compound 152, 2-(2,6-dioxo-3-piperidyl)-4-[(1-isopropylpyrazol-4-yl)methylamino]isoindoline-1,3-dione] | < 0.1 µM
